Publication PMC5290066 (Molecular and Cellular Biochemistry, 2016)
“Also recorded” adds a separate entry of the source. Like-named read-outs stand apart in the source and are kept apart here.

Tests used:
[1] = biological target: T1, hCK2α (Homo sapiens, UniProt P68400); assay: CK2 phosphorylation assay (P2B substrate, [γ-32P]ATP); assay type: biochemical; set-up: GST (N); made in house; host or cells: bacteria; conditions: for IC50 / Ki: 20 µM ATP, P2B protein substrate; for IC50: 37 °C, 5 min, read-out: IC50 (µM) ± SD CK2; for Ki: read-out: Ki (µM) ± SD CK2; for inhibition of CK2 stronger than that of Rio1 (fold): CK2 versus Rio1
Method: Recombinant human protein kinase GST-CK2α was produced in bacteria and purified as described elsewhere.
The reaction buffer contained 20 µM [γ-^32P]ATP (specific radioactivity 300–1000 cpm/pmol), 15 mM Mg^2+, 20 mM Tris–HCl pH 7.5, and 6 mM 2-mercaptoethanol.
(§1) The phosphorylation was terminated by addition of SDS/PAGE sample buffer, and proteins were resolved by electrophoresis, followed by Coomassie Brilliant Blue staining. The gels were dried and ^32P-labelled bands of P2B and Rio1 were excised from the gel, and radioactivity was determined in a scintillation counter (MicroBeta, Perkin Elmer) by Cerenkov counting.
(§2) IC50, K i, K m, and V max values were calculated using GraphPad Prism (version 4.0) software.

[2] = biological target: T2, human Rio1 (Homo sapiens, UniProt Q9BRS2); assay: Rio1 autophosphorylation assay ([γ-32P]ATP); assay type: biochemical; conditions: 0.5 µM ATP; for IC50: 37 °C, 15 min, read-out: IC50 (µM) ± SD Rio1; for Ki: read-out: Ki (µM) ± SD Rio1
T2 construct: Human recombinant kinase Rio1 containing residues 134–494 was expressed and purified as previously reported; made in house
T2 sequence (Q9BRS2 134-494): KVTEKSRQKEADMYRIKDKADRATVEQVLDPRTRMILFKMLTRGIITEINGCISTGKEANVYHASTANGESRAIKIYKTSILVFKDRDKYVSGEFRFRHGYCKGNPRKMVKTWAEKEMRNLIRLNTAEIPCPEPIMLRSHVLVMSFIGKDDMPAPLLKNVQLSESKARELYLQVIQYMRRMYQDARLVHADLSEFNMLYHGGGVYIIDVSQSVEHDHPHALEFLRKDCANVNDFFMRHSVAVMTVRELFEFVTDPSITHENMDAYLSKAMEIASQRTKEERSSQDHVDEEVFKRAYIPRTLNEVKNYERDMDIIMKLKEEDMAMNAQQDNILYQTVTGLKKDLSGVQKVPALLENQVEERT
Method: Recombinant human protein kinase GST-CK2α was produced in bacteria and purified as described elsewhere. The plasmid carrying the gene encoding human protein kinase Rio1 (residues […]) was kindly gifted by Professor Nicole LaRonde—LeBlanc (University of Maryland, USA). Human recombinant kinase Rio1 containing residues 134–494 was expressed and purified as previously reported with a few modifications.
In order to determine the autophosphorylation of human Rio1, the enzyme was incubated at 37 °C for 15 min in 50 μl samples each containing 1 pmol of human recombinant Rio1 and an appropriate concentration of tested compound (0.01–50 µM). The reaction buffer contained 0.5 µM ATP, [γ-^32P]ATP (specific radioactivity 300–1000 cpm/pmol), 50 mM NaCl, 10 mM Mg^2+, 50 mM Tris–HCl pH 7.5, and 6 mM 2-mercaptoethanol.
as §1, §2

[3] = biological target: T1, hCK2α; assay: Thermofluor (thermal shift) assay, CK2α; assay type: binding; conditions: 100 µM TIBI
Method: The procedure was performed according to the protocol described elsewhere with a few modifications. 10-µl reactions containing 50 mM NaCl, 10 mM Mg^2+, 50 mM Tris–HCl pH 7.5, 1 mg/ml hRio1 or hCK2α, and 100 µM TIBI or 5% DMSO (control) were incubated at 4 °C for 30 min. 10 µl of the SYPRO Orange dye was then added to the reactions. […] The changes in fluorescence intensity were measured as the temperature increased. Melting temperatures (T m) of hRio1 and CK2 in the presence and absence of TIBI were calculated using Bio-Rad software. The experiment was performed in duplicate.

[4] = biological target: T2, human Rio1; assay: Rio1 autophosphorylation assay ([γ-32P]ATP); assay type: biochemical
[5] = biological target: T2, human Rio1; assay: Steady-state kinetics of Rio1 autophosphorylation (Km for ATP, Vmax) with TIBI; assay type: biochemical
Method: Additionally, the same protocol was followed with the addition of TIBI to the reaction mixture at a concentration of 0.01, 0.05, and 0.1 µM.
as §1, §2

[6] = biological target: T3, hRio1 (Homo sapiens, UniProt Q9BRS2); assay: Size-exclusion chromatography of Rio1 (oligomeric state); conditions: 100 µM TIBI, 2 mg/ml hRio1
T3 construct: Human recombinant kinase Rio1 containing residues 134–494 was expressed and purified as previously reported; made in house
T3 sequence (Q9BRS2 134-494): T2 sequence (Q9BRS2 134-494)
Method: The glass column (200/10 mm) filled with the Sephadex G-200 medium (GE Healthcare) was equilibrated with a buffer containing 10 mM Tris, pH 7.5, 150 mM NaCl, and 6 mM β-mercaptoethanol. In order to calibrate the column, four proteins, namely β-amylase (200 kDa), alcohol dehydrogenase (150 kDa), bovine serum albumin (67 kDa), and ovalbumin (43 kDa), were separately loaded onto the column. 100-µl samples containing 2 mg/ml hRio1 diluted in the equilibration buffer in the presence or absence (control) of 100 µM TIBI were then loaded onto the column. The chromatography was performed at a flow rate 0.2 ml/min using the FPLC system AKTA Purifier 10 (GE Healthcare), and runs were monitored by OD280.

[7] = tested on: promyelocytic leukemia cell line HL-60; set-up: method as in PMID 21229880; conditions: cited from earlier work
[8] = biological target: T3, hRio1; assay: Thermofluor (thermal shift) assay, Rio1; assay type: binding; conditions: 100 µM TIBI
Method: The procedure was performed according to the protocol described elsewhere with a few modifications. 10-µl reactions containing 50 mM NaCl, 10 mM Mg^2+, 50 mM Tris–HCl pH 7.5, 1 mg/ml hRio1 or hCK2α, and 100 µM TIBI or 5% DMSO (control) were incubated at 4 °C for 30 min. 10 µl of the SYPRO Orange dye was then added to the reactions. The samples were heated from 4 to 98 °C at a rate of 0.2° per second using a thermal cycler (CFX 1000, Bio-Rad). The changes in fluorescence intensity were measured as the temperature increased. Melting temperatures (T m) of hRio1 and CK2 in the presence and absence of TIBI were calculated using Bio-Rad software. The experiment was performed in duplicate.

[9] = biological target: T3, hRio1; conditions: cited from earlier work
[10] = biological target: T2, human Rio1; conditions: cited from earlier work

T1 sequence (P68400 whole entry): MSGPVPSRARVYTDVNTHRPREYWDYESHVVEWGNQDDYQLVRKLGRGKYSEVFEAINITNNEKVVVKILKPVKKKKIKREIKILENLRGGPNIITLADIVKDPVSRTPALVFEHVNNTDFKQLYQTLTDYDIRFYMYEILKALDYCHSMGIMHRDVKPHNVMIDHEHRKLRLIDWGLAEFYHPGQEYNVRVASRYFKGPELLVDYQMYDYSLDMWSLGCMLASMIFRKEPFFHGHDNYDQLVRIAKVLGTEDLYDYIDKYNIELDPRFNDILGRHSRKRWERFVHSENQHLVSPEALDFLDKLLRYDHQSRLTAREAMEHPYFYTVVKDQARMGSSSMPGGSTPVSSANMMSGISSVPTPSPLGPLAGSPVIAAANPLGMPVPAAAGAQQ

| SMILES | IC50 [1] | Ki [1] | IC50 [2] | Ki [2] | other results |
| --- | --- | --- | --- | --- | --- |
| CN(C)c1nc2c(Br)c(Br)c(Br)c(Br)c2n1C [1Me-DMAT, 4,5,6,7-tetrabromo-N,N,1-trimethylbenzimidazole-2-amine] | 0.39 ± 0.012 µM | 0.167 µM | 0.61 ± 0.02 µM |  | inhibition of CK2 stronger than that of Rio1 (fold) [1]: twofold stronger |
| O=C(O)c1ccc2c(c1)nc(Nc1cccc(Cl)c1)c1ccncc12 [CX-4945, Silmitasertib, reference compound] |  |  | 0.37 ± 0.011 µM | 0.209 ± 0.008 µM |  |
| CN(C)c1nc2c(Br)c(Br)c(Br)c(Br)c2[nH]1 [DMAT, 2-dimethylamino-4,5,6,7-tetrabromobenzimidazole, reference compound] |  |  | 0.19 ± 0.009 µM | 0.1 µM |  |
| Cc1nc2c(I)c(I)c(I)c(I)c2[nH]1 [K92, 4,5,6,7-tetraiodo-2-methylbenzimidazole] | 0.066 ± 0.003 µM | 0.025 ± 0.001 µM | 0.19 ± 0.011 µM | 0.1 ± 0.004 µM | inhibition of CK2 stronger than that of Rio1 (fold) [1]: fourfold stronger |
| Brc1c(I)c(Br)c2nc[nH]c2c1I [K95, 4,6-dibromo-5,7-diiodobenzimidazole] | 0.3 ± 0.009 µM | 0.128 ± 0.005 µM | 0.29 ± 0.009 µM | 0.164 ± 0.007 µM |  |
| Brc1c(Br)c(Br)c2[nH]nnc2c1Br [TBB, 4,5,6,7-Tetrabromo-2-azabenzimidazole, reference compound] |  |  | 1.74 ± 0.05 µM | 0.983 ± 0.03 µM |  |
| Brc1c(Br)c(Br)c2[nH]cnc2c1Br [TBI, 4,5,6,7-tetrabromobenzimidazole] |  |  | 0.33 ± 0.007 µM | 0.186 ± 0.009 µM |  |
| CC(CC(=O)O)Sc1nc2c(Br)c(Br)c(Br)c(Br)c2[nH]1 (stereo not shown) [TBSB, 3-(4,5,6,7-tetrabromobenzimidazole-2-ylsulfanyl)butanoic acid] | 0.33 ± 0.013 µM | 0.141 ± 0.005 µM | 0.65 ± 0.03 µM | 0.367 ± 0.012 µM | inhibition of CK2 stronger than that of Rio1 (fold) [1]: twofold stronger |
| Cn1c(SCC(=O)O)nc2c(Br)c(Br)c(Br)c(Br)c21 [TBTS, [(4,5,6,7-tetrabromo-N,N,1-trimethylbenzimidazole-2-yl)sulfanyl]acetic acid] | 0.6 ± 0.03 µM | 0.257 ± 0.009 µM |  | 0.39 ± 0.011 µM |  |
| Clc1c(Cl)c(Cl)c2[nH]cnc2c1Cl [TCI, 4,5,6,7-tetrachlorobenzimidazole] | 9.7 ± 0.3 µM | 4.15 ± 0.1 µM | 1.9 ± 0.07 µM | 1.07 ± 0.04 µM |  |
| CC(CC(=O)O)Cn1c(N(C)C)nc2c(Br)c(Br)c(Br)c(Br)c21 (stereo not shown) [TDBB, 3-methyl-4-[4,5,6,7-tetrabromo-2-(dimethylamino)benzimidazole-1-yl]butanoic acid] | 1.51 ± 0.04 µM | 0.647 ± 0.014 µM | 2.17 ± 0.06 µM | 1.23 ± 0.03 µM |  |
| NCCNc1nc2c(I)c(I)c(I)c(I)c2[nH]1 [TI-2Am, 4,5,6,7-tetraiodobenzimidazole-2-amine-ethylamine] | 0.05 ± 0.002 µM | 0.021 ± 0.001 µM | 0.23 ± 0.01 µM | 0.13 ± 0.005 µM | inhibition of CK2 stronger than that of Rio1 (fold) [1]: ca. sixfold stronger |
| Ic1c(I)c(I)c2[nH]cnc2c1I [TIBI, 4,5,6,7-tetraiodobenzimidazole] | 0.083 ± 0.003 µM | 0.035 ± 0.001 µM | 0.09 ± 0.005 µM | 0.05 ± 0.002 µM | ΔTm at 100 µM ([3]; bound versus unbound, read-out: shift in melting temperature (Tm) of CK2α): 20 °C; melting temperature (Tm) of TIBI-bound CK2α ([3]; unbound enzyme 58.8 °C): 78.8 °C; IC50 ([4]; IC50 against Rio1 at 0.01 µM ATP, 0.01 µM ATP): 46 nM; IC50 ([4]; IC50 against Rio1 at 0.1 µM ATP, 0.1 µM ATP): 61 nM; IC50 ([4]; IC50 against Rio1 at 1 µM ATP, 1 µM ATP): 101 nM; mode of inhibition of Rio1 [5]: strict ATP-competitive inhibitors; Vmax of Rio1 in the presence of TIBI ([5]; no shift with increasing TIBI concentration): 0.09 pmol/s; effect on oligomeric state (monomer–tetramer equilibrium) of Rio1 [6]: does not influence the oligomeric state; also recorded: did not observe any changes in the monomer–tetramer equilibrium; proapoptotic activity [7]: proapoptotic activity; ΔTm at 100 µM ([8]; bound versus unbound, read-out: shift in melting temperature (Tm) of Rio1): 10 °C; melting temperature (Tm) of bound Rio1 ([8]; unbound enzyme 58.8 °C): 68.8 °C |
| CN(C)c1nc2c(I)c(I)c(I)c(I)c2n1C [TIdiMe, 2-dimethylamino-1-metyl-4,5,6,7-tetraiodobenzimidazole] | 0.2 ± 0.006 µM | 0.085 ± 0.003 µM | 0.24 ± 0.008 µM | 0.135 ± 0.005 µM |  |
| N#Cc1cn([C@@H]2O[C@H](CO)[C@@H](O)[C@H]2O)c2ncnc(N)c12 [Toyocamycin, toyocamycin, reference compound] | 54.8 ± 1.9 µM | 23.5 ± 0.8 µM | 3.66 ± 0.09 µM | 2.07 ± 0.07 µM | shift in Tm of human Rio1 bound to toyocamycin [9]: 12.1 °C; mode of inhibition of Rio1 [10]: mixed inhibition |
